The target in one series is PADs 1–4. Put plainly: kinact/KI determination with purified enzyme, all PADs tested. Conditions: for kinact/KI: for all of the PADs tested (PADs 1–4). It counts as biochemical.
The next series deals with caspase 3 activity. The experiment in a line: caspase 3 activity in MDA-MB-231 cells. The settings on record: MDA-MB-231 cells, 100, 200 and 400 µM, 96 h.
In another series the test system is Ki-67. Put plainly: Ki-67 levels in MDA-MB-231 cells.
The nature of a further series: maximum tolerable dose. The format is in vivo. Conditions: mice, per os.
The test system of a further series is MDA-MB-231 cells. The experiment in a line: cell viability and cell number in MDA-MB-231 cells. The format is cell-based. Conditions: MDA-MB-231 cells, 100, 200 and 400 µM, 96 h after administration.
The next series has as its target T1, PAD1 (Homo sapiens, UniProt Q9ULC6).
T1 sequence (Q9ULC6 1-663): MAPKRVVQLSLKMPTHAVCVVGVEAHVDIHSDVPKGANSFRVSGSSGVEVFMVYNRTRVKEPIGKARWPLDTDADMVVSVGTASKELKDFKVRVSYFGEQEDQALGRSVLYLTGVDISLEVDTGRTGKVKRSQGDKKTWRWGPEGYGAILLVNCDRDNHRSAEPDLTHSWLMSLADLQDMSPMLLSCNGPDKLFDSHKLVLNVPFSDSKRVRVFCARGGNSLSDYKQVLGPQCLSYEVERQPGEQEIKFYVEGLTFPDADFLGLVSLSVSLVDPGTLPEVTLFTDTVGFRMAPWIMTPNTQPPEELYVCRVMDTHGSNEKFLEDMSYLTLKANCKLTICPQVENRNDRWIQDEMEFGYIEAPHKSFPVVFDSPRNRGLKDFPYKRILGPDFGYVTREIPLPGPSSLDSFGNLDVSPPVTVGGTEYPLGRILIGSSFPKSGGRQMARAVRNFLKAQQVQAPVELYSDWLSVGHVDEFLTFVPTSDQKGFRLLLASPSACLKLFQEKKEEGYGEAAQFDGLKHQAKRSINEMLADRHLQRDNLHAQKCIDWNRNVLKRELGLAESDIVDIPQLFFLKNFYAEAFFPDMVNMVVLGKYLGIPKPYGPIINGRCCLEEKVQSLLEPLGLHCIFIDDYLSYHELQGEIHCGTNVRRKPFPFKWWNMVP
Put plainly: kinact/KI determination with purified enzyme, PAD1. It counts as biochemical.

Series [1] concerns mouse model of ulcerative colitis. The settings on record: cited from earlier work.
In series [2] the test system is collagen induced arthritis (CIA) model. Conditions: cited from earlier work.
The nature of series [3]: pharmacokinetics in mice, IV and IP injection. The format is in vivo. The settings on record: 10 mg/kg.
For series [4] the following is noted: mice, 100 mg/kg daily by i.p. for up to 56 days; cited from earlier work.

The values that follow come from publication PMC3572853 (ACS medicinal chemistry letters, 2012).

In the case of `N=C(CCl)NCC[C@@H](NC(=O)c1ccccc1)C(N)=O` [D-Cl2-amidine], the kinact/KI at PADs 1–4 was less than 2.5 M⁻¹ s⁻¹.
On the same count and under the same terms, to `N=C(CCl)NCCCC[C@@H](NC(=O)c1ccccc1)C(N)=O` [D-Cl4-amidine] belongs less than 2.5 M⁻¹ s⁻¹; to `N=C(CCl)NCCC[C@@H](NC(=O)c1ccccc1)C(=O)NCC(=O)O` [D-Cl-amidine-Gly], less than 3.83 M⁻¹ s⁻¹.
Same read-out and setting: as for `N=C(CCl)NCCC[C@@H](NC(=O)c1ccccc1)C(=O)O` [D-Cl-amidine-OH], the figure is less than 3.83 M⁻¹ s⁻¹.
`N=C(CCl)NCCC[C@@H](NC(=O)c1ccccc1)C(N)=O` [D-Cl-amidine]: the “caspase 3 activity” value in the series with caspase 3 activity was “significant increase in activity at a concentration of 400 µM”. In addition, the Ki-67 levels result in the series with Ki-67 is reported as “no significant effect on Ki-67 levels”. Further, the body weight change entry in the series “maximum tolerable dose” (varying doses up to 150 mg/kg) is recorded as “maintained healthy weight gains”. In the series with MDA-MB-231 cells, the cell number entry is “significantly decreased cell number at a concentration of 400 µM”; the cell viability result was “significantly decreasing cell viability at concentrations of 200 and 400 µM”.
As for `N=C(CF)NCCC[C@@H](NC(=O)c1ccccc1)C(N)=O` [D-F-amidine], the kinact/KI on PAD1 is 20.3 M⁻¹ s⁻¹.
With `N=C(CF)NCCC[C@@H](NC(=O)c1ccccc1C(=O)O)C(N)=O` [D-o-F-amidine], in the series on caspase 3 activity, the “caspase 3 activity” value is “did not result in an increase in caspase 3 activity”. In addition, in “maximum tolerable dose” (varying doses up to 150 mg/kg), the body weight change entry was “maintained healthy weight gains”. Further, in the series on MDA-MB-231 cells, the cell number result was “only a small decrease in cell number at a concentration of 400 µM” and the cell viability result is reported as “no effect on cell viability”.
As to `N=C(CCl)NCCC[C@H](NC(=O)c1ccccc1)C(N)=O` [L-Cl-amidine, N-α-Benzoyl-N5-(2-Chloro-1-Iminoethyl)-l-Ornithine Amide], the disease severity result in series [1] and in [2] was “reduces disease severity” throughout. For the same compound, in the series on caspase 3 activity, the “caspase 3 activity” value is “significant increase in activity at a concentration of 400 µM”. In addition, the Ki-67 levels entry in the series on Ki-67 is reported as “no significant effect on Ki-67 levels”. Besides, the “time to complete degradation” value in series [3] (IP) was no more than 4 h; in [3] (IV), no more than 2 h. The body weight change result is “significant weight loss” in “maximum tolerable dose” (100 mg/kg (group 5), 4 days (96 h)) and “significant weight loss” in “maximum tolerable dose” (150 mg/kg (group 6), 4 days (96 h)). Also, the observable toxicity entry in the series “maximum tolerable dose” (group 6 (150 mg/kg)) is “notably shaking, anxious, hunching and breathing heavily from 1 to 4 h after treatment”. In [4], the signs of toxicity result is on record as “no observable signs of toxicity”. For the same compound, the cell number result in the series with MDA-MB-231 cells is “significantly decreased cell number at a concentration of 400 µM”. In addition, the cell viability result in the series with MDA-MB-231 cells was “significantly decreasing cell viability at concentrations of 200 and 400 µM”.
On to `N=C(CCl)NCCCC(NC(=O)c1ccccc1)C(=O)O` [L-Cl-amidine-OH], for which the “PAD inhibition in words” value in the series on PADs 1–4 (PADs 1–4) was “poor PAD inhibitor”.
With `CC(=O)N[C@H]1[C@@H](O[C@@H]2O[C@H](CC(O)[C@H]3O[C@@H](n4ccc(=O)[nH]c4=O)[C@H](O)[C@@H]3O)[C@H](O)[C@H](O)[C@H]2NC(=O)/C=C/CC(C)C)O[C@H](CO)[C@@H](N)[C@@H]1O` (stereo partly shown) [tunicamycin], the Ki-67 levels entry in the series on Ki-67 is “a decrease in Ki-67 levels”.

By kinact/KI is commonly meant the second-order rate constant of inactivation.
